Data reported in patent US11647750B2, “Active compound combinations having insecticidal/acaricidal properties” (Bayer Aktiengesellschaft, priority 2017, dated 2023).
Read-outs that look alike come from different tables or passages of the source.

Tests used:
Type in all cases: in vivo
Tetranychus urticae [1] = assay: Tetranychus urticae spray test, OP-resistant (French bean leaf disks)
Method: (§1) • The expected efficacy of a given combination of two compounds is calculated as follows (see Colby, S. R., “Calculating Synergistic and antagonistic Responses of Herbicide Combinations”, Weeds 15, pp. 20-22, 1967): • If • X is the efficacy expressed in % mortality of the untreated control for test compound A at a concentration of m ppm respectively m g/ha, • Y is the efficacy expressed in % mortality of the untreated control for test compound B at a concentration of n ppm respectively n g/ha, • E is the efficacy expressed in % mortality of the untreated control using the mixture of A and B at m and n ppm respectively m and n g/ha, • then is
(§2) [formula] • If the observed insecticidal efficacy of the combination is higher than the one calculated as “E”, then the combination of the two compounds is more than additive, i.e. there is a synergistic effect.
Tetranychus urticae—Spray Test OP-Resistant
(§3) • Solvent: 78.0 parts by weight acetone 1.5 parts by weight dimethylformamide • Emulsifier: alkylarylpolyglycol ether
(§4) To produce a suitable preparation of active compound, 1 part by weight of active compound is mixed with the stated amount of solvents and is diluted with water, containing an emulsifier concentration of 1000 ppm, to the desired concentration. To produce a suitable preparation of a spore suspension the spores are diluted with emulsifier containing water to the desired concentration. Further test concentrations are prepared by dilution with emulsifier containing water.
French bean (Phaseolus vulgaris) leaf disks infected with all instars of the two spotted spidermite (Tetranychus urticae), are sprayed with a preparation of the active ingredient of the desired concentration.
After the specified period of time, mortality in % is determined. 100% means all spider mites have been killed and 0% means none of the spider mites have been killed. The mortality values determined thus are recalculated using the Colby-formula (see above).

Myzus persicae = Myzus persicae spray test (Chinese cabbage leaf disks); details: mortality
Method: as §1, §2
Myzus persicae Spray Test
as §3, §4
Chinese cabbage (Brassica pekinensis) leaf disks infected with all instars of the green peach aphid (Myzus persicae), are sprayed with a preparation of the active ingredient of the desired concentration.
After the specified period of time, mortality in % is determined. 100% means all aphids have been killed; 0% means none of the aphids have been killed. The mortality values determined thus are recalculated using the Colby-formula (see above).

Tetranychus urticae [2] = assay: Tetranychus urticae spray test; OP-resistant (bean plants); details: mortality
Method: as §1, §2
Tetranychus urticae Spray Test; OP-Resistant
Solvent: 7 parts by weight of dimethylformamide
Emulsifier: alkylaryl polyglycol ether
To produce a suitable preparation of active compound, 1 part by weight of active compound is mixed with the stated amount of solvent and is diluted with water, containing an emulsifier concentration of 1000 ppm, to the desired concentration. Further test concentrations are prepared by dilution with emulsifier containing water.
Bean plants (Phaseolus vulgaris) which are heavily infested with all stages of the two-spotted spider mite (Tetranychus urticae) are treated by being sprayed with the preparation of the active compound of the desired concentration.
After the specified period of time mortality in % is determined. 100% means all the spider mites have been killed and 0% means none of the spider mites have been killed. The mortality values determined thus are recalculated using the Colby-formula (see above).

Meloidogyne incognita = Meloidogyne incognita test (gall formation on salad roots); details: nematicidal activity on the basis of gall formation
Method: as §1, §2
Meloidogyne incognita—Test
Solvent: 125.0 parts by weight of acetone
To produce a suitable preparation of active compound, 1 part by weight of active compound is mixed with the stated amount of solvent, and the concentrate is diluted with water to the desired concentration. To produce a suitable preparation of a spore suspension the spores are diluted with water to the desired concentration.
Vessels are filled with sand, a solution of the active ingredient, a suspension containing eggs and larvae of the southern root-knot nematode (Meloidogyne incognita) and salad seeds. The salad seeds germinate and the seedlings grow. Galls develop in the roots.
After the specified period of time nematicidal activity is determined on the basis of the percentage of gall formation. 100% means no galls were found and 0% means the number of galls found on the roots of the treated plants was equal to that in untreated control plants.

[3] = Tetranychus urticae, foliar, 144 h, read-out: Efficacy in % after 6 days
[4] = Tetranychus urticae, foliar, 144 h, 0.5 g ai/ha, mortality, 6 days, read-out: Efficacy in % after 6 days
[5] = Tetranychus urticae, foliar, 144 h, 0.6 g ai/ha, mortality, 6 days, read-out: Efficacy in % after 6 days

Compound: COCCOC(=O)C(C#N)(C(=O)c1ccccc1C(F)(F)F)c1ccc(C(C)(C)C)cc1 (racemic) [Cyflumetofen, 2-methoxyethyl (RS)-2-(4-tert-butylphenyl)-2-cyano-3-oxo-3-(α,α,α-trifluoro-o-tolyl)propionate]
- Efficacy in % after 2 days (Tetranychus urticae [1]; 0.5 g ai/ha, mortality): 0%
- pest or weed control at 0.5 g/ha (Tetranychus urticae [1]; [3]): 0%

Compound: Cc1cc(F)c(N=C2SCC(=O)N2CC(F)(F)F)cc1[S+]([O-])CC(F)(F)F (centres unmarked) [Cpd of formula (I)]
- Efficacy in % after 6 days (Myzus persicae; 2 g ai/ha): 0%
- Efficacy in % after 6 days (Myzus persicae; 8 g ai/ha): 0%
- Efficacy in % after 2 days (Tetranychus urticae [1]; 0.125 g ai/ha, mortality): 0%
- Efficacy in % after 2 days (Tetranychus urticae [1]; 0.5 g ai/ha, mortality): 0%
- pest or weed control at 0.125 g/ha (Tetranychus urticae [1]; Tetranychus urticae, foliar, 144 h, 0.125 g ai/ha, mortality, 6 days, read-out: Efficacy in % after 6 days): 0%
- pest or weed control at 0.3 g/ha (Tetranychus urticae [1]; Tetranychus urticae, foliar, 144 h, 0.3 g ai/ha, mortality, 6 days, read-out: Efficacy in % after 6 days): 0%
- pest or weed control at 0.5 g/ha (Tetranychus urticae [1]; [4]): 0%
- pest or weed control at 0.6 g/ha (Tetranychus urticae [1]; [5]): 0%
- Efficacy in % after 3 days (Tetranychus urticae [2]; 0.4 ppm): 0%
- Efficacy in % after 7 days (Tetranychus urticae [2]; 0.8 ppm): 30%
- Efficacy in % after 14 days (Meloidogyne incognita; 1 ppm): 0%
- Efficacy in % after 14 days (Meloidogyne incognita; 2 ppm): 70%

Compound: Cc1cc(Cl)cc(C)c1C1=C(O)C2(CCC3(CC2)OCCO3)NC1=O [Cpd of formula (IIa)]
- Efficacy in % after 6 days (Myzus persicae; 16 g ai/ha): 0%
- Efficacy in % after 2 days (Tetranychus urticae [1]; 1 g ai/ha, mortality): 0%
- pest or weed control at 1 g/ha (Tetranychus urticae [1]; Tetranychus urticae, foliar, 144 h, 1 g ai/ha, mortality, 6 days, read-out: Efficacy in % after 6 days): 0%

Compound: Cc1ccc(-c2ccc(F)cc2)c(C)c1C1=C(O)C2(CCOCC2)NC1=O [Cpd of formula (IIb)]
- Efficacy in % after 2 days (Tetranychus urticae [1]; 0.5 g ai/ha, mortality): 0%
- pest or weed control at 0.5 g/ha (Tetranychus urticae [1]; [4]): 0%

Compound: Cc1nn(C)c(/C(OC(=O)C(C)(C)C)=C(\C#N)c2ccc(C(C)(C)C)cc2)c1C [Cyenopyrafen, (E)-2-(4-tert-butylphenyl)-2-cyano-1-(1,3,4-trimethylpyrazol-5-yl)vinyl 2,2-dimethylpropionate]
- Efficacy in % after 6 days (Myzus persicae; 0.5 g ai/ha): 0%
- Efficacy in % after 6 days (Myzus persicae; 2 g ai/ha): 0%
- pest or weed control at 0.125 g/ha (Tetranychus urticae [1]; [3]): 0%

Compound: COC(c1ccc(N(C(=O)c2c(C)nn(C)c2C)C(=O)C(C)C)cc1CC(C)C)(C(F)(F)F)C(F)(F)F [Pyflubumide, 3′-isobutyl-N-isobutyryl-1,3,5-trimethyl-4′-[2,2,2-trifluoro-1-methoxy-1-(trifluoromethyl)ethyl]pyrazole-4-carboxanilide]
- Efficacy in % after 2 days (Tetranychus urticae [1]; 0.0125 g ai/ha, mortality): 0%
- pest or weed control at 0.0125 g/ha (Tetranychus urticae [1]; Tetranychus urticae, foliar, 144 h, 0.0125 g ai/ha, mortality, 6 days, read-out: Efficacy in % after 6 days): 0%
- pest or weed control at 0.6 g/ha (Tetranychus urticae [1]; [5]): 70%

Compound: Cc1cc(C)c(C2=C(OC(=O)CC(C)(C)C)C3(CCCC3)OC2=O)c(C)c1 [Spiromesifen, 3-mesityl-2-oxo-1-oxaspiro[4.4]non-3-en-4-yl 3,3-dimethylbutyrate]
- Efficacy in % after 2 days (Tetranychus urticae [1]; 0.05 g ai/ha, mortality): 0%
- pest or weed control at 0.05 g/ha (Tetranychus urticae [1]; [3]): 0%
- pest or weed control at 0.6 g/ha (Tetranychus urticae [1]; [3]): 0%

Compound: CCOC(=O)OC1=C(c2cc(C)ccc2C)C(=O)N[C@]12CC[C@@H](OC)CC2 [Spirotetramat, cis-4-(ethoxycarbonyloxy)-8-methoxy-3-(2,5-xylyl)-1-azaspiro[4.5]dec-3-en-2-one]
- Efficacy in % after 2 days (Tetranychus urticae [1]; 0.05 g ai/ha, mortality): 0%
- pest or weed control at 0.05 g/ha (Tetranychus urticae [1]; [3]): 0%
- Efficacy in % after 7 days (Tetranychus urticae [2]; 2 ppm): 40%
- Efficacy in % after 14 days (Meloidogyne incognita; 30 ppm): 0%
- Efficacy in % after 14 days (Meloidogyne incognita; 60 ppm): 0%

Compound: abamectin
- Efficacy in % after 2 days (Tetranychus urticae [1]; 0.00125 g ai/ha, mortality): 0%
- Efficacy in % after 6 days (Tetranychus urticae [1]; 0.015 g ai/ha, mortality, 6 days): 70%
- Efficacy in % after 6 days (Tetranychus urticae [1]; 0.03 g ai/ha, mortality, 6 days): 70%
- Efficacy in % after 3 days (Tetranychus urticae [2]; 0.01 ppm): 0%

Compound: emamectin benzoate [Emamectin-benzoate]
- Efficacy in % after 2 days (Tetranychus urticae [1]; 0.003125 g ai/ha, mortality): 0%
- Efficacy in % after 6 days (Tetranychus urticae [1]; 0.003125 g ai/ha, mortality, 6 days): 0%
- Efficacy in % after 2 days (Tetranychus urticae [1]; 0.0125 g ai/ha, mortality): 0%
- Efficacy in % after 6 days (Tetranychus urticae [1]; 0.0125 g ai/ha, mortality, 6 days): 0%
- Efficacy in % after 6 days (Tetranychus urticae [1]; 0.15 g ai/ha, mortality, 6 days): 0%

Compound: milbemectin
- Efficacy in % after 6 days (Tetranychus urticae [1]; 0.75 g ai/ha, mortality, 6 days): 0%
- Efficacy in % after 6 days (Tetranychus urticae [1]; 1.5 g ai/ha, mortality, 6 days): 0%

Compound: spinosad
- Efficacy in % after 2 days (Tetranychus urticae [1]; 0.03125 g ai/ha, mortality): 0%
- Efficacy in % after 6 days (Tetranychus urticae [1]; 0.03125 g ai/ha, mortality, 6 days): 0%
- Efficacy in % after 6 days (Tetranychus urticae [1]; 0.125 g ai/ha, mortality, 6 days): 0%
